Test results: patent US9232799B2, “N-[(het)arylethyl)] pyrazole(thio)carboxamides and their heterosubstituted analogues” (BAYER INTELLECTUAL PROPERTY GMBH, priority 2010, dated 2016)

What was measured:
Pyrenophora teres = test: In vivo preventive test on Pyrenophora teres (barley); conditions: 500 ppm of active ingredient, evaluated 7-9 days after inoculation
Source text: One day after this treatment, the plants are inoculated with an aqueous spore suspension of Pyrenophora teres.

Alternaria solani = test: In vivo preventive test on Alternaria solani (tomato); conditions: 500 ppm of active ingredient, evaluated 7 days after inoculation
Source text: One day after this treatment, the plants are inoculated with an aqueous spore suspension of Alternaria solani.

[1] = logP by HPLC on reversed-phase column (C 18), EEC Directive 79/831 Annex V.A8; type: physicochemical
Experimental: In table 1, the logP values were determined in accordance with EEC Directive 79/831 Annex V.A8 by HPLC (High Performance Liquid Chromatography) on a reversed-phase column (C 18), using the method described below: Temperature: 40° C.; […]

Sphaerotheca fuliginea = test: In vivo preventive test on Sphaerotheca fuliginea (cucumber); conditions: 500 ppm of active ingredient, evaluated 7 days after inoculation
Source text: One day after this treatment, the plants are inoculated with an aqueous spore suspension of Sphaerotheca fuliginea.

Fusarium graminearum = test: microbe, parasite or virus in culture; type: cell-based; conditions: 50 μM
aflatoxines production = test: microbe, parasite or virus in culture; type: cell-based, Aspergillus parasiticus; conditions: 50 μM

SMILES	Efficacy (Pyrenophora teres)	Efficacy (Alternaria solani)	logP [1]	Efficacy (Sphaerotheca fuliginea)	% Inhibition of fungal growth at 50 μM (Fusarium graminearum)	% Inhibition of Aflatoxin at 50 μM (aflatoxines production)
CC(Cc1ccccc1F)N(C(=S)c1c(C(F)F)nn(C)c1F)C1CC1 (stereo not drawn) [Example 21]	100%	95%	4.01	100%		
CC(Cc1ccccc1Cl)NC(=S)c1c(C(F)F)nn(C)c1F (stereo not drawn) [Example 37]	100%	94%	3.61	98%	78%	94%
CC(Cc1ccccc1Cl)NC(=S)c1c(C(F)F)nn(C)c1Cl (stereo not drawn) [Example 38]	100%	89%	3.72	85%		
CC(Cc1ccc(Cl)cc1Cl)NC(=O)c1c(C(F)F)nn(C)c1Cl (stereo not drawn) [Example 68]	100%	95%	3.67	99%	100%	100%
CC(Cc1ccc(Cl)cc1Cl)NC(=S)c1c(C(F)F)nn(C)c1Cl (stereo not drawn) [Example 69]		94%	4.29	95%	86%	100%
Cn1nc(C(F)F)c(C(=S)NCCc2ccc(Cl)cc2Cl)c1F [Example 71]	100%	94%	3.99	85%		
COC(CNC(=S)c1c(C(F)F)nn(C)c1F)c1cc(Cl)cc(Cl)c1 (stereo not drawn) [Example 110]	100%	80%	4.19	75%		
CC(CNC(=O)c1c(C(F)F)nn(C)c1F)c1cccc(C(F)(F)F)c1 (stereo not drawn) [Example 126]	100%	90%	3.23		98%	100%
CC(CNC(=O)c1c(C(F)F)nn(C)c1F)c1ccc(C(F)(F)F)cc1 (stereo not drawn) [Example 127]	100%	100%	3.25		100%	100%
CC(CNC(=O)c1c(C(F)F)nn(C)c1Cl)c1ccc(C(F)(F)F)cc1 (stereo not drawn) [Example 128]	94%	100%	3.39		82%	100%
Cc1cc(C)c(CCN(C)C(=O)c2c(C(F)F)nn(C)c2F)c(C)c1 [Example 135]	95%	95%	3.48		96%	100%
CN(CCc1ccc(C(C)(C)C)cc1)C(=O)c1c(C(F)F)nn(C)c1F [Example 138]	95%	100%	3.78		80%	100%
CC(Cc1cccc(Oc2ccccc2)c1)NC(=O)c1c(C(F)F)nn(C)c1F (stereo not drawn) [Example 146]	100%	95%	3.64		83%	100%
Cn1nc(C(F)F)c(C(=O)NC(C)(C)Cc2ccc(Oc3ccccc3)cc2)c1F [Example 150]	78%	95%	4.19	100%		
Cn1nc(C(F)F)c(C(=O)NCCc2ccc(Oc3ccccc3)cc2)c1F [Example 152]	100%	95%	3.41		82%	100%
Cn1nc(C(F)F)c(C(=O)NC(C)(C)Cc2ccc(Oc3ccccc3)cc2)c1Cl [Example 153]	80%	95%	4.39	93%		
CC(Cc1ccc(Oc2ccccc2)cc1)NC(=O)c1c(C(F)F)nn(C)c1Cl (stereo not drawn) [Example 154]	100%	100%	3.83		80%	99%
CC(Cc1ccc(Oc2ccccc2)cc1)NC(=S)c1c(C(F)F)nn(C)c1F (stereo not drawn) [Example 156]	100%	89%	4.29	93%		
Cn1nc(C(F)F)c(C(=O)NCC(c2cccs2)C(F)(F)F)c1F (stereo not drawn) [Example 161]	100%	95%	2.75		85%	100%
Cn1nc(C(F)F)c(C(=O)NCC(c2cccs2)C(F)(F)F)c1Cl (stereo not drawn) [Example 162]	95%	100%	2.92		80%	98%

SMILES	Efficacy (Pyrenophora teres)	Efficacy (Alternaria solani)	logP [1]	Efficacy (Sphaerotheca fuliginea)	% Inhibition of fungal growth at 50 μM (Fusarium graminearum)	% Inhibition of Aflatoxin at 50 μM (aflatoxines production)
Cc1ccsc1CCNC(=O)c1c(C(F)F)nn(C)c1Cl [Example 163]	95%	90%	2.68		80%	98%
Cc1ccsc1CCNC(=O)c1c(C(F)F)nn(C)c1F [Example 164]	100%	95%	2.49		95%	100%
Cn1nc(C(F)F)c(C(=O)NCCc2ccsc2Br)c1Cl [Example 165]	95%	90%	2.82		81%	99%
Cn1nc(C(F)F)c(C(=O)NCCc2csc3c2CCCC3)c1Cl [Example 169]	100%	80%	3.52		75%	91%
Cc1c(CCNC(=O)c2c(C(F)F)nn(C)c2F)sc2ccccc12 [Example 171]	100%	100%	3.27		93%	100%
Cc1c(CCNC(=O)c2c(C(F)F)nn(C)c2Cl)sc2ccccc12 [Example 172]	100%	100%	3.46		85%	100%
Cc1cccnc1CC(NC(=O)c1c(C(F)F)nn(C)c1F)C(F)(F)F (stereo not drawn) [Example 185]	94%	95%	1.52		87%	100%
Cn1nc(C(F)F)c(C(=O)NCCc2ncc(C(F)(F)F)cc2Cl)c1Cl [Example 191]	100%	94%	2.97		100%	100%
CCC(CNC(=O)c1c(C(F)F)nn(C)c1F)c1ncc(C(F)(F)F)cc1Cl (stereo not drawn) [Example 192]	100%	100%	3.52		100%	100%
Cn1nc(C(F)F)c(C(=O)NCCc2c(F)c(F)nc(F)c2F)c1F [Example 208]	100%	95%	2.44		100%	99%
Cn1nc(C(F)F)c(C(=O)NC2CCCCC2c2ccccc2)c1Cl (stereo not drawn) [Example 215]	100%	78%	3.51	93%		
Cn1nc(C(F)F)c(C(=O)N(C2CC2)C2CCCCC2c2ccc(Cl)cc2Cl)c1F (stereo not drawn) [Example 217]			5.05	99%		
Cn1nc(C(F)F)c(C(=O)NC[Si](C)(C)c2ccccc2)c1Cl [Example 227]	100%	95%	3.31		71%	87%
Cn1nc(C(F)F)c(C(=O)NC[Si](C)(C)c2ccccc2)c1F [Example 228]	100%	100%	3.13		93%	100%
Cn1nc(C(F)F)c(C(=O)NC[Si](C)(C)c2cccc(Cl)c2)c1Cl [Example 236]	100%	100%	3.71		84%	99%
Cn1nc(C(F)F)c(C(=O)NC[Si](C)(C)c2cccc(Cl)c2)c1F [Example 237]	100%	100%	3.55		100%	100%
Cn1nc(C(F)F)c(C(=O)NC[Si](C)(C)c2cc(Cl)cc(Cl)c2)c1Cl [Example 243]	100%	95%	4.27		84%	99%
Cn1nc(C(F)F)c(C(=O)NC[Si](C)(C)c2cc(Cl)cc(Cl)c2)c1F [Example 244]	95%	100%	4.08		100%	100%
Cn1nc(C(F)F)c(C(=O)N(C[Si](C)(C)c2ccsc2)C2CC2)c1Cl [Example 247]	100%	94%	3.71		100%	100%
